Source: BigSolDB 2.1

Clc1ccc(COC(Cn2ccnc2)c2ccc(Cl)cc2Cl)cc1.O=[N+]([O-])O (centres undefined)
solubility (mole fraction)
Details | 278.15 K | 283.15 K | 288.15 K | 293.15 K | 298.15 K | 303.15 K | 308.15 K | 313.15 K | 318.15 K
in 1,4-dioxane | – | – | 0.000262 | 0.000317 | 0.000393 | 0.000482 | 0.000596 | 0.000729 | 0.000897
in ethanol | 0.000526 | 0.000656 | 0.000832 | 0.00102 | 0.00125 | 0.00153 | 0.00189 | 0.00228 | 0.00275
in methanol | 0.0015 | 0.00181 | 0.00221 | 0.00266 | 0.00328 | 0.00397 | 0.00479 | 0.00577 | 0.00687
in water | 1.67e-05 | 2.05e-05 | 2.47e-05 | 2.93e-05 | 3.44e-05 | 3.98e-05 | 4.56e-05 | 5.16e-05 | 5.78e-05
